As usually defined, the Log P is a log measure of how a compound divides between an organic and an aqueous phase.

One data set deals with skin. The conditions noted are these: Cornwell and Barry 1993; cited from earlier work.
For data set [1] the following is noted: in words; cited from earlier work.
A further data set concerns porcine dermatomed skin. In words: Skin penetration of rhodamine 123 (fluorescence and confocal microscopy). Format: in vitro ADME. The conditions noted are these: 10 μg rhodamine 123 equivalent, 6 hours, cryosections. The protocol: For stratum corneum (SC) 0-20 μm and for epidermis 20-100 μm XZ optical sections from confocal microscopic images were used for quantifying the fluorescence pixels. The nanoparticles were prepared using the method described in Table 8-1.
Later the skin was sectioned with cryotome and observed under a fluorescent microscope.

For data set [2] the following is noted: cited from earlier work.

Regarding `O=c1[nH]cc(F)c(=O)[nH]1` [5-Fluorouracil (5-FU), 5-Fluorouracil], in the data set with skin, the skin permeability entry was “poorly permeable through skin”. Besides, in data set [1], the solubility in water entry is recorded as “partially soluble in cold water”.

On to `COC(=O)c1ccccc1-c1c2ccc(=N)cc-2oc2cc(N)ccc12.Cl` [Rhodamine 123], for which, in the data set on porcine dermatomed skin, the penetration into skin result is “restricted to the top layer of skin (SC)”. Moreover, in data set [2], the lipophilicity (Log P) was 1.2.

The values are drawn from patent US9233110B2, “Protein nanocarriers for topical delivery” (priority 2008, dated 2016).
